Test results reported in patent US10966993B2, “Pharmaceutical composition comprising a sulfonylurea drug and preparation method thereof” (JIANGSU AOSAIKANG PHARMACEUTICAL CO., LTD., priority 2016, dated 2021).
Values after ≈ are worked out from the molar mass of the structure shown. Where two headings read alike, the source gives them in different places.

How the values were obtained:
[1] = Test on the solubility of glibenclamide in additive/cyclodextrin solutions; format: physicochemical; conditions: for solubility at 1 h: 25 °C, aqueous with cosolvent or surfactant or cyclodextrin, thermodynamic from solid; for Solubility: 25° C.
Method: An excess amount of glibenclamide powder was added into an aqueous solution comprising different proportion of additive (e.g., meglumine, sodium carbonate, sodium hydrogen carbonate or sodium hydroxide) and cyclodextrin (hydroxypropyl-β-cyclodextrin) to form a suspension. The suspension was placed in a constant shaking incubator, and shaken for 1 h at 25±1° C. The shaken suspension was filtered with a 0.45 μm hydrophilic filter membrane, with the primary filtrate being disposed and the subsequent filtrate being collected. The subsequent filtrate was diluted to appropriate times with a PBS buffer having a pH of 7.4, the absorbance of the diluted subsequent filtrate was determined at a wavelength of 225 nm, and the solubility of glibenclamide in the diluted subsequent filtrate was calculated according to the absorbance. Corresponding solubility curves were plotted with the solubility of glibenclamide as the vertical axis and the concentration of cyclodextrin and/or meglumine as the horizontal axis.

MCAO rats = test: Neurobehavioral scoring (Longa) in rat MCAO models; format: in vivo, Sprague-Dawley (SD) rat; conditions: for Neurobehavioral score (Longa Scoring, 0-4): n=8, glibenclamide 10 μg/kg ip at ischemia 4 h + 200 ng/h sc for 44 hours
Method: 7.2 Experiment Animals: Male Sprague-Dawley (SD) rat, clean grade, weighing at 200˜230 g. The temperature of animal feeding room was maintained at 20˜24° C., the humidity was maintained at 30˜70%; a cycle of lighting on 12 hours/lighting off 12 hours (06:00 AM on, 18:00 PM off) every day was employed. During the experiment, the animals were feed separately, and had free access to water and food.
The test drugs in group GB was formulated as follows: glibenclamide was dissolved in a little DMSO (dimethyl sulfoxide), the resulting solution was diluted to a DMSO concentration of 5 vol % with physiological saline, and the pH of the solution was adjusted to 8˜8.5 with NaOH. By means of the above process, solutions with glibenclamide concentration of 200 μg/ml and 10 μg/ml were respectively formulated.
The test drugs in group H-GB was formulated as follows: Taking the lyophilized product of Example 13, into which was added an appropriate amount of physiological saline and respectively formulated into a solution with a glibenclamide concentration of […].
Rats were rested for about 1 week before the experiment started. On the day of the experiment, the surgical tools were sterilized by autoclaving. The rats were anesthetized by intraperitoneally injecting chloral hydrate (330 mg/kg). The common carotid artery and external carotid artery of the rats were separated, and a sterilized MCAO monofilament was used to insert into the internal carotid artery through the opening of the external carotid artery to a depth of about 18 mm, until the head of the monofilament reached the starting part of the middle cerebral artery, the opening of the external carotid artery was ligatured to fix the monofilament. […] The blood flow in the brain was monitored with a laser Doppler (Model moorVMS-LDF2, Manufacturer moor) respectively pre-operation, post-operation and immediately after reperfusion, and the molding in which the ratio of the postoperative blood flow to the preoperative blood flow was less than 30% was regarded as a qualified molding. […]

[2] = background statement; cited from earlier work

COc1ccc(Cl)cc1C(=O)NCCc1ccc(S(=O)(=O)NC(=O)NC2CCCCC2)cc1 [glibenclamide, 5-chloro-N-(4-[N-(cyclohexylcarbamoyl)aminosulfonyl]phenethyl)-2-methoxybenzamide]
solubility at 1 h ([1]; sodium carbonate 0.1% (w/v), 2-hydroxypropyl-β-cyclodextrin 10% (w/v), read-out: Solubility): 6510 µg/mL (≈ 13200 µM)
solubility at 1 h ([1]; sodium carbonate 0.1% (w/v), 2-hydroxypropyl-β-cyclodextrin 20% (w/v), read-out: Solubility): 10600 µg/mL (≈ 21500 µM)
solubility at 1 h ([1]; sodium carbonate 0.1% (w/v), 2-hydroxypropyl-β-cyclodextrin 30% (w/v), read-out: Solubility): 10800 µg/mL (≈ 21800 µM)
solubility at 1 h ([1]; sodium carbonate 0.1% (w/v), 2-hydroxypropyl-β-cyclodextrin 40% (w/v), read-out: Solubility): 10900 µg/mL (≈ 22100 µM)
solubility at 1 h ([1]; sodium carbonate 0.1% (w/v), cyclodextrin from 5% (w/v) to 20% (w/v), read-out: water solubility of glibenclamide): 2350 to 10600 µg/mL (≈ 4760 to 21500 µM)
solubility at 1 h ([1]; sodium carbonate 0.1% (w/v), cyclodextrin from 20% (w/v) to 40% (w/v), read-out: solubility of glibenclamide): ~10600 µg/mL (≈ 21500 µM)
solubility at 1 h ([1]; sodium hydrogen carbonate 4% (w/v), 2-hydroxypropyl-β-cyclodextrin 0.5% (w/v), read-out: Solubility): 320 µg/mL (≈ 648 µM)
solubility at 1 h ([1]; sodium hydrogen carbonate 4% (w/v), 2-hydroxypropyl-β-cyclodextrin 1.25% (w/v), read-out: Solubility): 590 µg/mL (≈ 1190 µM)
solubility at 1 h ([1]; sodium hydrogen carbonate 4% (w/v), 2-hydroxypropyl-β-cyclodextrin 5% (w/v), read-out: Solubility): 1260 µg/mL (≈ 2550 µM)
solubility at 1 h ([1]; sodium hydrogen carbonate 4% (w/v), 2-hydroxypropyl-β-cyclodextrin 10% (w/v), read-out: Solubility): 1690 µg/mL (≈ 3420 µM)
solubility at 1 h ([1]; sodium hydrogen carbonate 4% (w/v), 2-hydroxypropyl-β-cyclodextrin 20% (w/v), read-out: Solubility): 1730 µg/mL (≈ 3500 µM)
solubility at 1 h ([1]; sodium hydrogen carbonate 4% (w/v), 2-hydroxypropyl-β-cyclodextrin 30% (w/v), read-out: Solubility): 1780 µg/mL (≈ 3600 µM)
solubility at 1 h ([1]; sodium hydrogen carbonate 4% (w/v), 2-hydroxypropyl-β-cyclodextrin 40% (w/v), read-out: Solubility): 1750 µg/mL (≈ 3540 µM)
solubility at 1 h ([1]; sodium hydrogen carbonate 4% (w/v), cyclodextrin from 0.5% (w/v) to 10% (w/v), read-out: water solubility of glibenclamide): 320 to 1690 µg/mL (≈ 648 to 3420 µM)
solubility at 1 h ([1]; sodium hydrogen carbonate 4% (w/v), cyclodextrin from 10% (w/v) to 40% (w/v), read-out: solubility of glibenclamide): ~1690 µg/mL (≈ 3420 µM)
solubility at 1 h ([1]; sodium hydroxide 0.01% (w/v), 2-hydroxypropyl-β-cyclodextrin 1.25% (w/v), read-out: Solubility): 370 µg/mL (≈ 749 µM)
solubility at 1 h ([1]; sodium hydroxide 0.01% (w/v), 2-hydroxypropyl-β-cyclodextrin 2.5% (w/v), read-out: Solubility): 640 µg/mL (≈ 1300 µM)
solubility at 1 h ([1]; sodium hydroxide 0.01% (w/v), 2-hydroxypropyl-β-cyclodextrin 5% (w/v), read-out: Solubility): 810 µg/mL (≈ 1640 µM)
solubility at 1 h ([1]; sodium hydroxide 0.01% (w/v), 2-hydroxypropyl-β-cyclodextrin 10% (w/v), read-out: Solubility): 1260 µg/mL (≈ 2550 µM)
solubility at 1 h ([1]; sodium hydroxide 0.01% (w/v), 2-hydroxypropyl-β-cyclodextrin 30% (w/v), read-out: Solubility): 1240 µg/mL (≈ 2510 µM)
solubility at 1 h ([1]; sodium hydroxide 0.01% (w/v), 2-hydroxypropyl-β-cyclodextrin 40% (w/v), read-out: Solubility): 1350 µg/mL (≈ 2730 µM)
solubility at 1 h ([1]; sodium hydroxide 0.01% (w/v), cyclodextrin from 0.5% (w/v) to 10% (w/v), read-out: water solubility of glibenclamide): 140 to 1260 µg/mL (≈ 283 to 2550 µM)
solubility at 1 h ([1]; sodium hydroxide 0.01% (w/v), cyclodextrin from 10% (w/v) to 40% (w/v), read-out: solubility of glibenclamide): ~1260 µg/mL (≈ 2550 µM)
Solubility ([1]; meglumine 0% (w/v), 2-hydroxypropyl-β-cyclodextrin 30% (w/v)): 86 µg/mL (≈ 174 µM)
Solubility ([1]; meglumine 0% (w/v), 2-hydroxypropyl-β-cyclodextrin 40% (w/v)): 120 µg/mL (≈ 243 µM)
Solubility ([1]; sodium hydrogen carbonate 4% (w/v), 2-hydroxypropyl-β-cyclodextrin 2.5% (w/v)): 840 µg/mL (≈ 1700 µM)
Solubility ([1]; sodium hydroxide 0.01% (w/v), 2-hydroxypropyl-β-cyclodextrin 20% (w/v)): 1300 µg/mL (≈ 2630 µM)
neurobehavioral scores compared with the control (in words) (MCAO rats; at 24 h, 48 h): declines
Neurobehavioral score (Longa Scoring, 0-4) (MCAO rats; scored at ischemia 24 h): 1.75 ± 0.25
Neurobehavioral score (Longa Scoring, 0-4) (MCAO rats; scored at ischemia 48 h): 2.00 ± 0.19
water solubility [2]: less than 5 μg/ml
